Measured values as given in PubChem BioAssay AID192 (DTP/NCI, 2004).
Several values for one entry are separate records, joined by “and”; a condition that tells them apart may be missing. Equal values may be shown once. Toxic doses and inconclusive results are not listed. How the source made its calls: active means survival T/C of 150% or more; inactive means T/C below 125% in these data.

Tested on: BDF1 mice, B16 melanoma ip, median survival T/C
Experiment: NCI In Vivo Anticancer Drug Screen. Data for tumor model B16 Melanoma (intraperitoneal) in B6D2F1 (BDF1) mice
Settings: endpoint: median survival time, higher = longer survival
Description: The antitumor activity of compounds was measured in mice bearing transplantable tumors. Survival or tumor size were measured and the results are expressed as the measurement made in the treated group (T) divided by the measurement made in the vehicle treated control group (C). The tumor model used in this assay is B16 Melanoma (intraperitoneal) in B6D2F1 (BDF1) mice

[1] = dose: 25.0 mg/kg/injection, schedule: Q01DX009 (ip), vehicle: saline
[2] = dose: 50.0 mg/kg/injection, schedule: Q01DX009 (ip), vehicle: saline
[3] = dose: 3.12 mg/kg/injection, schedule: Q01DX009 (ip), vehicle: saline
[4] = dose: 12.5 mg/kg/injection, schedule: Q01DX009 (ip), vehicle: saline
[5] = dose: 50.0 mg/kg/injection, schedule: Q01DX009 (ip), vehicle: saline with Tween-80
[6] = dose: 100.0 mg/kg/injection, schedule: Q01DX009 (ip), vehicle: saline with Tween-80
[7] = dose: 200.0 mg/kg/injection, schedule: Q01DX009 (ip), vehicle: saline with Tween-80
[8] = dose: 400.0 mg/kg/injection, schedule: Q01DX009 (ip), vehicle: saline with Tween-80
[9] = dose: 12.5 mg/kg/injection, schedule: Q01DX009 (ip), vehicle: Klucel (hydroxypropylcellulose) (HPC)
[10] = dose: 25.0 mg/kg/injection, schedule: Q01DX009 (ip), vehicle: Klucel (hydroxypropylcellulose) (HPC)
[11] = dose: 100.0 mg/kg/injection, schedule: Q01DX009 (ip), vehicle: Klucel (hydroxypropylcellulose) (HPC)
[12] = dose: 6.25 mg/kg/injection, schedule: Q01DX009 (ip), vehicle: saline

Measured: T/C

Cc1c(Cl)cccc1NC(=O)c1ccc(Cl)cc1Cl
inactive: dose: 100.0 mg/kg/injection, schedule: Q04DX003 (ip), vehicle: Klucel (hydroxypropylcellulose) (HPC) 95 % of control | dose: 200.0 mg/kg/injection, schedule: Q04DX003 (ip), vehicle: Klucel (hydroxypropylcellulose) (HPC) 102 % of control | dose: 400.0 mg/kg/injection, schedule: Q04DX003 (ip), vehicle: Klucel (hydroxypropylcellulose) (HPC) 100 % of control

CNCCN(C)CCNC
inactive: [1] 98 % of control | [2] 89 % of control | dose: 100.0 mg/kg/injection, schedule: Q01DX009 (ip), vehicle: saline 95 % of control

CNCC(O)c1cccc(O)c1 (configuration not stated)
inactive: dose: 1.56 mg/kg/injection, schedule: Q01DX009 (ip), vehicle: saline 111 % of control | [3] 117 % of control | [4] 108 % of control | [1] 105 % of control | [2] 95 % of control

CC(=O)Oc1c(Br)cc(Br)cc1-c1ccccc1
inactive: [5] 98 % of control | [6] 94 % of control | [7] 98 % of control | [8] 91 % of control

COc1ccc(OC)c(C2N(Cc3ccccc3N(C)C)CCCN2Cc2ccccc2N(C)C)c1
inactive: dose: 25.0 mg/kg/injection, schedule: Q01DX009 (ip), vehicle: saline with Tween-80 102 % of control | [5] 93 % of control | [6] 90 % of control

CCC1CN2CCC3(C(=O)Nc4ccccc43)C2CC1/C(=C/OC)C(=O)OC (configuration not stated)
inactive: [5] 95 % of control

CCCCCCCCCCCCCC[n+]1ccccc1
inactive: dose: 0.06 mg/kg/injection, schedule: Q01DX009 (ip), vehicle: saline with Tween-80 86 % of control and 89 % of control | dose: 0.13 mg/kg/injection, schedule: Q01DX009 (ip), vehicle: saline with Tween-80 90 % of control | dose: 0.25 mg/kg/injection, schedule: Q01DX009 (ip), vehicle: saline with Tween-80 86 % of control | dose: 8.0 micrograms/kg/injection, schedule: Q01DX009 (ip), vehicle: saline 88 % of control | dose: 15.0 micrograms/kg/injection, schedule: Q01DX009 (ip), vehicle: saline 91 % of control | dose: 30.0 micrograms/kg/injection, schedule: Q01DX009 (ip), vehicle: saline 94 % of control | dose: 60.0 micrograms/kg/injection, schedule: Q01DX009 (ip), vehicle: saline 88 % of control

NC1=NC(=O)C(c2ccccc2)O1 (configuration not stated)
inactive: [9] 94 % of control | [10] 97 % of control | [11] 102 % of control

CC(=O)Oc1ccc(/C=N/NC(N)=S)nc1
inactive: dose: 9.4 mg/kg/injection, schedule: Q01DX009 (ip), vehicle: saline with Tween-80 96 % of control | dose: 18.8 mg/kg/injection, schedule: Q01DX009 (ip), vehicle: saline with Tween-80 106 % of control | dose: 37.5 mg/kg/injection, schedule: Q01DX009 (ip), vehicle: saline with Tween-80 108 % of control | dose: 75.0 mg/kg/injection, schedule: Q01DX009 (ip), vehicle: saline with Tween-80 112 % of control | dose: 150.0 mg/kg/injection, schedule: Q01DX009 (ip), vehicle: saline with Tween-80 108 % of control

O=C1C(=O)c2ccccc2-c2ccccc21.O=C1C(=O)c2ccccc2-c2ccccc21.[Hg]
inactive: dose: 1.5 mg/kg/injection, schedule: Q01DX009 (ip), vehicle: saline with Tween-80 94 % of control and 99 % of control | dose: 3.0 mg/kg/injection, schedule: Q01DX009 (ip), vehicle: saline with Tween-80 88 % of control and 90 % of control

O=c1cc[nH]c(=O)o1
inactive: dose: 6.25 mg/kg/injection, schedule: Q01DX009 (ip), vehicle: water 104 % of control | dose: 12.5 mg/kg/injection, schedule: Q01DX009 (ip), vehicle: water 111 % of control | dose: 25.0 mg/kg/injection, schedule: Q01DX009 (ip), vehicle: water 108 % of control

CCN(CC)CCCC(C)Nc1cc(/C=C/c2ccc(Cl)cc2)nc2cc(N(C)C)ccc12 (configuration not stated)
inactive: [9] 97 % of control

CN1CCC(OC2c3ccccc3CCc3ccccc32)CC1
inactive: [3] 100 % of control | [12] 104 % of control | [4] 104 % of control | [1] 97 % of control

CC1CN1P(=O)(N1CC1C)N1CC1C (configuration not stated)
inactive: [12] 120 % of control | [4] 100 % of control and 112 % of control | [1] 113 % of control | dose: 25.0 mg/kg/injection, schedule: Q04DX003 (ip), vehicle: saline 113 % of control | dose: 50.0 mg/kg/injection, schedule: Q04DX003 (ip), vehicle: saline 120 % of control | dose: 100.0 mg/kg/injection, schedule: Q04DX003 (ip), vehicle: saline 93 % of control

CN(Cc1cnc2nc(N)nc(N)c2n1)c1c(Cl)cc(C(=O)NC(CCC(=O)O)C(=O)O)cc1Cl (configuration not stated)
inactive: dose: 3.12 mg/kg/injection, schedule: Q01DX009 (ip), vehicle: Klucel (hydroxypropylcellulose) (HPC) 116 % of control | dose: 6.25 mg/kg/injection, schedule: Q01DX009 (ip), vehicle: Klucel (hydroxypropylcellulose) (HPC) 111 % of control | [9] 116 % of control | dose: 17.5 mg/kg/injection, schedule: Q01DX011 (ip), vehicle: saline 99 % of control | [10] 109 % of control | dose: 35.0 mg/kg/injection, schedule: Q01DX011 (ip), vehicle: saline 107 % of control | dose: 50.0 mg/kg/injection, schedule: Q01DX009 (ip), vehicle: Klucel (hydroxypropylcellulose) (HPC) 111 % of control

C=CCN(CC=C)CCN(CC)CC
inactive: [12] 93 % of control | [4] 94 % of control | [1] 94 % of control | [2] 91 % of control

CCCCN(c1ccccc1)c1ncnc2c1cnn2C
inactive: dose: 100.0 mg/kg/injection, schedule: Q04DX003 (ip), vehicle: saline with Tween-80 100 % of control | dose: 200.0 mg/kg/injection, schedule: Q04DX003 (ip), vehicle: saline with Tween-80 102 % of control | dose: 400.0 mg/kg/injection, schedule: Q04DX003 (ip), vehicle: saline with Tween-80 100 % of control

O=C(Nc1ccccc1)Nc1cc(C(F)(F)F)ccc1Cl
inactive: dose: 100.0 mg/kg/injection, schedule: Q04DX009 (ip), vehicle: Klucel (hydroxypropylcellulose) (HPC) 109 % of control | dose: 200.0 mg/kg/injection, schedule: Q04DX003 (ip), vehicle: carboxymethylcellulose (CMC) 90 % of control | dose: 200.0 mg/kg/injection, schedule: Q04DX009 (ip), vehicle: Klucel (hydroxypropylcellulose) (HPC) 106 % of control | dose: 400.0 mg/kg/injection, schedule: Q04DX003 (ip), vehicle: carboxymethylcellulose (CMC) 92 % of control | dose: 400.0 mg/kg/injection, schedule: Q04DX009 (ip), vehicle: Klucel (hydroxypropylcellulose) (HPC) 86 % of control

CNC(=S)N(C1CCCCC1)C1CCCCC1
inactive: [5] 101 % of control | [6] 95 % of control | [7] 98 % of control

CCN1C(=O)NC(=O)/C(=C/N(CCO)CCO)C1=O
inactive: [11] 111 % of control | dose: 200.0 mg/kg/injection, schedule: Q01DX009 (ip), vehicle: Klucel (hydroxypropylcellulose) (HPC) 107 % of control | dose: 400.0 mg/kg/injection, schedule: Q01DX009 (ip), vehicle: Klucel (hydroxypropylcellulose) (HPC) 96 % of control

CC(=O)OCC(COC(C)=O)(COC(C)=O)COC(C)=O
inactive: [6] 105 % of control | [7] 105 % of control | [8] 100 % of control

O=C1NC(c2cccc3ccccc23)Nc2ccccc21 (configuration not stated)
inactive: dose: 15.6 mg/kg/injection, schedule: Q01DX009 (ip), vehicle: Klucel (hydroxypropylcellulose) (HPC) 97 % of control | dose: 31.2 mg/kg/injection, schedule: Q01DX009 (ip), vehicle: Klucel (hydroxypropylcellulose) (HPC) 100 % of control | dose: 62.5 mg/kg/injection, schedule: Q01DX009 (ip), vehicle: Klucel (hydroxypropylcellulose) (HPC) 104 % of control | dose: 125.0 mg/kg/injection, schedule: Q01DX009 (ip), vehicle: Klucel (hydroxypropylcellulose) (HPC) 108 % of control
